The subject of one series is Plasmodium falciparum. Briefly: Antimalarial activity against Plasmodium falciparum 3D7 asexual blood stage infected in human erythrocytes incubated for 72 hrs by LDH assay. The class given is functional, cell-based. The conditions noted are these: 3D7, 72 h.
The test system of the next series is HepG2. As to the kind of experiment: Cytotoxicity against human HepG2 cells assessed as growth inhibition after 48 hrs by Cell Titer-Glo assay. The class given is cell-based. To be noted: HepG2, 48 h. (In general: ATP-based viability assays read luminescence as a measure of living cells.)
Series [1] can be described thus: Selectivity index, ratio of EC50 for human HepG2 cells to EC50 for Plasmodium falciparum 3D7 asexual blood stage infected in human erythrocytes. The class given is toxicity, cell-based. To be noted: read-out: Ratio EC50.

Each structure is given as a SMILES string.

The EC50 is the concentration needed to bring the measured effect to its halfway point. `Fc1ccc(Nc2nc(NCc3ccccc3)c3sccc3n2)cc1`: the EC50 in the series on Plasmodium falciparum was found to be 0.866 µM; in the series with HepG2, 18.7 µM.

`COc1cccc(Nc2nc(NCC3CCCO3)c3ccccc3n2)c1` (configuration not stated): in the series with HepG2, the half-maximal effective concentration (EC50) came out at 7.7 µM. Also, the selectivity ratio in series [1] amounted to 33.

For the molecule `Cn1cnc2nc(Nc3ccc(F)cc3)nc(NCc3ccccc3)c21`, the EC50 in the series on Plasmodium falciparum amounted to 1.2 µM; in the series with HepG2, 9 µM. Also, the selectivity ratio in series [1] turned out to be 7.

`CN1CCN(CCNc2nc(Nc3ccc(F)c(Cl)c3)nc3cccnc23)CC1`: the results for the EC50 in the series with Plasmodium falciparum and with HepG2 were 0.11 µM and 8.9 µM, respectively. In addition, the selectivity ratio in series [1] came to 80.

Turning to `COc1ccc(Nc2nc(NCC3CCCO3)c3ccccc3n2)c(OC)c1` (configuration not stated), the concentration giving a half-maximal response (EC50) came out at 1.1 µM in the series with Plasmodium falciparum and 15.8 µM in the series with HepG2. The selectivity ratio in series [1] is 19.

On to `CN(C)c1nc(Nc2ccc(F)cc2)nc2ccccc12`, for which the EC50 in the series with Plasmodium falciparum was 0.418 µM; in the series on HepG2, 20.1 µM. The selectivity ratio in series [1] is 48.

As for `CN1CCC(Nc2nc(Nc3ccc(F)c(Cl)c3)nc3cccnc23)CC1`, the figures for the EC50 with Plasmodium falciparum and in the series with HepG2 were 0.134 µM and 11.5 µM, respectively. Moreover, the selectivity ratio in series [1] was determined as 86.

Turning to `Fc1ccc(Nc2nc(NCc3ccccc3)c3ccncc3n2)cc1`, the EC50 came out at 0.539 µM in the series with Plasmodium falciparum and 17.8 µM in the series on HepG2. The selectivity ratio in series [1] worked out at 33.

Take `Fc1ccc(Nc2nc(NCCN3CCOCC3)c3ccccc3n2)cc1`: the EC50 with Plasmodium falciparum is 0.118 µM; in the series on HepG2, 30.1 µM. Moreover, the selectivity ratio in series [1] is 256.

On to `CN(C)CCNc1nc(Nc2ccc(F)cc2)nc2ccccc12`, for which the EC50 was found to be 0.104 µM in the series on Plasmodium falciparum and 27.9 µM in the series with HepG2. Besides, in series [1], the selectivity ratio is 267.

As to `CN1CCC(Nc2nc(Nc3ccc(F)cc3)nc3ccccc23)CC1`, the 50% effective concentration (EC50) in the series with Plasmodium falciparum was determined as 0.051 µM; in the series with HepG2, 11.5 µM. Also, in series [1], the selectivity ratio came to 227.

With `Fc1ccc(Nc2nc(NCc3ccco3)c3ccccc3n2)cc1`, the results for the EC50 in the series with Plasmodium falciparum and in the series on HepG2 were 0.112 µM and 4.9 µM, respectively. Besides, in series [1], the selectivity ratio was found to be 43.

For `CNc1nc(Nc2ccc(OC)cc2)nc2ccccc12`, the half-maximal effective concentration (EC50) worked out at 0.155 µM in the series with Plasmodium falciparum and 26.1 µM in the series on HepG2. Further, the selectivity ratio in series [1] was 168.

With `CNc1nc(Nc2ccc(F)cc2)nc2ccccc12`, the 50% effective concentration (EC50) with Plasmodium falciparum was 0.136 µM; in the series on HepG2, 16.2 µM. The selectivity ratio in series [1] is 119.

`CN1CCN(CCNc2nc(Nc3ccc(Cl)c(F)c3)nc3cccnc23)CC1`: the concentration for a half-maximal effect (EC50) in the series with Plasmodium falciparum stood at 0.128 µM; in the series on HepG2, 12.3 µM. Besides, the selectivity ratio in series [1] was determined as 96.

Regarding `Cn1ncc2c(NCc3ccccc3)nc(Nc3ccc(F)cc3)nc21`, the EC50 came out at 7.6 µM in the series on Plasmodium falciparum and 26 µM in the series with HepG2. Further, the selectivity ratio in series [1] was determined as 3.

For the molecule `NC(=O)c1ccc(Nc2nc(NCc3ccco3)c3ccccc3n2)cc1`, the concentration giving a half-maximal response (EC50) is 0.569 µM in the series on Plasmodium falciparum and 20 µM with HepG2. In series [1], the selectivity ratio was 35.

For the molecule `CCOc1ccc(Nc2nc(NCc3ccccc3)c3ccccc3n2)cc1`, the 50% effective concentration (EC50) in the series on Plasmodium falciparum was found to be 0.159 µM; with HepG2, 4.5 µM. In addition, the selectivity ratio in series [1] turned out to be 29.

As for `Brc1ccc(Nc2nc(NCc3ccco3)c3ccccc3n2)cc1`, the EC50 in the series on Plasmodium falciparum amounted to 0.125 µM; in the series with HepG2, 19 µM. In series [1], the selectivity ratio is 153.

In the case of `FC(F)(F)c1ccc(Nc2nc(NCc3ccccc3)c3ccccc3n2)cc1`, the results for the EC50 in the series on Plasmodium falciparum and in the series on HepG2 were 0.105 µM and 6.4 µM, respectively.

In the case of `Fc1ccc(Nc2nc(NCc3ccccc3)c3ccccc3n2)cc1`, the EC50 with Plasmodium falciparum is 0.077 µM; in the series on HepG2 it was 5.1 µM. In series [1], the selectivity ratio is 67.

`COc1ccc(Nc2nc(N3CCOCC3)c3ccccc3n2)cc1`: the figures for the EC50 in the series on Plasmodium falciparum and with HepG2 were 7.7 µM and 25.6 µM, respectively. Besides, in series [1], the selectivity ratio was found to be 3.

For `Cc1ccc(Nc2nc(NCc3ccco3)c3ccccc3n2)cc1`, the values for the half-maximal effective concentration (EC50) in the series with Plasmodium falciparum and in the series with HepG2 were 0.109 µM and 5.9 µM, respectively. In series [1], the selectivity ratio worked out at 54.

As to `CC(O)c1ccc(Nc2nc(NCc3ccco3)c3ccccc3n2)cc1` (configuration not stated), the EC50 in the series with Plasmodium falciparum was determined as 0.702 µM; in the series with HepG2 it was 12.6 µM.

Take `COc1ccc(Nc2nc(NCc3ccco3)c3ccccc3n2)cc1`: the EC50 was 0.124 µM with Plasmodium falciparum and 2.5 µM with HepG2. For the same molecule, the selectivity ratio in series [1] was determined as 20.

Take `Fc1cccc(Nc2nc(NCC3CCCO3)c3ccccc3n2)c1` (configuration not stated): the half-maximal effective concentration (EC50) amounted to 0.144 µM in the series on Plasmodium falciparum and 8.6 µM in the series with HepG2. The selectivity ratio in series [1] was 39.

In the case of `Fc1ccccc1Nc1nc(NCC2CCCO2)c2ccccc2n1` (configuration not stated), the figures for the concentration giving a half-maximal response (EC50) with Plasmodium falciparum and with HepG2 were 0.317 µM and 21.3 µM, respectively. The selectivity ratio in series [1] is 75.

`Fc1ccc(Nc2nc(NCc3ccccc3)c3ncccc3n2)cc1`: the figures for the EC50 in the series on Plasmodium falciparum and with HepG2 were 0.057 µM and 18.2 µM, respectively. In addition, in series [1], the selectivity ratio amounted to 320.

Regarding `Clc1ccc(Nc2nc(NCc3ccco3)c3ccccc3n2)cc1`, the concentration giving a half-maximal response (EC50) in the series with HepG2 worked out at 7.4 µM. Also, the selectivity ratio in series [1] worked out at 71.

For the molecule `COc1ccccc1Nc1nc(NCC2CCCO2)c2ccccc2n1` (configuration not stated), the EC50 was 0.526 µM in the series with Plasmodium falciparum and 24.5 µM in the series on HepG2. Besides, the selectivity ratio in series [1] amounted to 47.

Consider `CN1CCC(Nc2nc(Nc3ccc(Cl)c(F)c3)nc3cccnc23)CC1`, for which the values for the concentration for a half-maximal effect (EC50) in the series on Plasmodium falciparum and in the series on HepG2 were 0.283 µM and 11.1 µM, respectively. In series [1], the selectivity ratio was 39.

With `COc1cc([C@@H]2c3cc4c(cc3[C@@H](O[C@@H]3O[C@@H]5CO[C@@H](C)O[C@H]5[C@H](O)[C@H]3O)[C@H]3COC(=O)[C@H]23)OCO4)cc(OC)c1O` [ETOPOSIDE], the concentration giving a half-maximal response (EC50) in the series with HepG2 stood at 15.9 µM.

Take `c1ccc2c(NCC3CCCO3)nc(Nc3ccc4c(c3)OCO4)nc2c1` (configuration not stated): the EC50 in the series with Plasmodium falciparum was 0.169 µM; in the series with HepG2, 8.6 µM. Also, the selectivity ratio in series [1] came to 51.

Consider `CC(=O)Nc1ccc(Nc2nc(NCC3CCCO3)c3ccccc3n2)cc1` (configuration not stated), for which the values for the EC50 in the series on Plasmodium falciparum and in the series with HepG2 were 0.274 µM and 38.3 µM, respectively. Besides, in series [1], the selectivity ratio came to 140.

For `COc1cccc(Nc2nc(NCc3ccco3)c3ccccc3n2)c1OC`, the results for the EC50 in the series with Plasmodium falciparum and with HepG2 were 1.3 µM and 20.1 µM, respectively.

For `FC(F)(F)c1ccc(Nc2nc(NCc3ccccc3)c3ccccc3n2)cn1`, the EC50 with Plasmodium falciparum was determined as 0.102 µM; with HepG2 it was 8.9 µM. For the same molecule, the selectivity ratio in series [1] amounted to 87.

`NC(=O)c1ccc(Nc2nc(NCC3CCCO3)c3ccccc3n2)cc1` (configuration not stated): the concentration giving a half-maximal response (EC50) with Plasmodium falciparum turned out to be 0.691 µM; with HepG2, 34.6 µM. In addition, in series [1], the selectivity ratio was determined as 50.

For `COC(=O)c1ccc(Nc2nc(NCc3ccco3)c3ccccc3n2)cc1`, the EC50 with Plasmodium falciparum amounted to 0.574 µM; in the series on HepG2, 33.5 µM. Further, in series [1], the selectivity ratio came out at 58.

With `Fc1ccc(Nc2nc(NCCN3CCCC3)c3ccccc3n2)cc1`, the results for the 50% effective concentration (EC50) with Plasmodium falciparum and with HepG2 were 0.077 µM and 26.5 µM, respectively. Also, the selectivity ratio in series [1] is 343.

In the case of `CN1CCN(C(=O)CNc2nc(Nc3ccc(F)cc3)nc3ccccc23)CC1`, the concentration for a half-maximal effect (EC50) in the series on Plasmodium falciparum amounted to 0.064 µM; in the series with HepG2 it was 30.4 µM. Further, the selectivity ratio in series [1] was found to be 473.

Take `Clc1cccc(Nc2nc(NCc3ccco3)c3ccccc3n2)c1`: the results for the half-maximal effective concentration (EC50) in the series on Plasmodium falciparum and with HepG2 were 0.134 µM and 5 µM, respectively. Besides, the selectivity ratio in series [1] was found to be 37.

On to `Fc1ccc(Nc2nc(NCc3ccccc3)c3cccnc3n2)cc1`, for which the concentration giving a half-maximal response (EC50) was determined as 0.636 µM in the series on Plasmodium falciparum and 12.4 µM in the series with HepG2.

The record behind these values is ChEMBL document CHEMBL3997785, “Optimization of 2-Anilino 4-Amino Substituted Quinazolines into Potent Antimalarial Agents with Oral in Vivo Activity” (J Med Chem, 2017).
